Test results from patent US12714711B2, “Salts of neuroceuticals and uses thereof” (priority 2020, dated 2026).
≈ marks a conversion by molar mass, not a printed value.

How the values were obtained:
[1] = Water solubility at 25° C.; conditions: for solubility: water, 25 °C; for water solubility: 25° C.
[2] = tested on: MK-801 treated mice; experiment: Open field test, MK-801 induced hyper-locomotion; conditions: for Open-field test, anti-hyperactivity effect (formula [formula] not readable) / Open-field test effect (formula [formula] not readable): acute oral; for Open-field test, anti-hyperactivity effect (formula [formula] not readable): mice; for locomotor activity in MK-801 treated mice: MK-801 0.2 mg/kg i.p.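 For all read-outs here: adult male C57BL/6J mice, locomotion counted as total photobeam breaks over 60 minutes in an open field photobeam activity system.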
Protocol: All mice were tested with open field task.
In this study, the mice were placed in a Plexiglas cage (37.5 cm×21.5 cm×18 cm) under 50-65 lux light intensity. Their spontaneous locomotor activities were measured for 60 minutes using the Photobeam Activity System (PAS)-open field (San Diego Instruments, San Diego, Calif., USA). The total number of photo beam breaks of each mouse was measured as an index of locomotor activity.
The schizophrenia-like behavior, MK801-induced hyperactivity, were tested by open field task.
All mice were tested in an open field task.
The schizophrenia-like behavior, NMDA-hypofunction-induced hyperactivity, were tested by open field task.
The amount of paliperidone administered to Groups 3 and 4 was equal. The schizophrenia-like behavior, MK801-induced hyperactivity, were tested by open field task.
The amount of paliperidone administered to Groups 3 and 4 was equal. The schizophrenia-like behavior, NMDA-hypofunction-induced hyperactivity, were tested by open field task.

[3] = in vivo; conditions: rat, po
Protocol: All animals used in this study were adult rats (at least 2.5 months of age).
Male Sprague-Dawley rats having a bodyweight between 250-300 g were randomly assigned to two groups. […] The chemicals were suspended in sesame oil and administrated by single oral gavage at 2 ml/kg. All rats were fasted overnight with free access to water before oral administration of the testing compositions. On the day of dosing, the blood samples were collected at 0 min (prior to dosing), and 0.25, 0.5, 1, 2, 4, 6, 8, and 24 hr post-dosing.
Blood samples were collected from rat jugular veins and transferred into tubes coated with sodium heparin. To obtain plasma, the blood samples were centrifuged at 2,500×g for 15 min at 4° C. and the supernatants were collected and kept frozen in a freezer at −80° C., until they were analyzed.
The plasma concentration of donepezil was determined by LC/MS. The chromatographic separation was carried out on a 5 μm EVO C8 100 Å LC column (100×4.6 mm, Kinetex®). The mobile phase was 0.1% formic acid in water and acetonitrile:methanol=8:2 set as gradient. Flow rate used was 0.3 mL/min. Column temperature was maintained at 40° C. and the injection volume was 30 μL.
The pharmacokinetic parameters were calculated using non-compartmental analysis (NCA) with WinNonlin to assess the systemic exposure of donepezil in rats.

[4] = mouse, in vivo, ip, 10 mg/kg
Protocol: The testing compounds were administered to mice either through intraperitoneal (i.p.) injection or oral gavage before analyzing blood glucose levels.
For the acute study, two cohorts of mice were used.
For repeated-dose study, mice were randomly assigned into five groups as listed below. • Group 1: Vehicle control • Group 2: Clz (3 mg/kg) • Group 3: Clz:NA 1:1 salt (4.13 mg/kg) • Group 4: Clz (10 mg/kg) • Group 5: Clz:NA 1:1 salt (13.77 mg/kg)
The night before blood glucose levels were measured, the mice were fasted. Blood glucose levels were measured with a portable glucose meter (Contour® Plus, Bayer AG, Leverkusen, Germany) After waiting for 60 min, the treatments indicated above were administered. FIG. 75 illustrates the experimental design of this study.
Two cohorts of mice were used in this study. In cohort 1, mice were randomly assigned into the five groups listed below: • Group 1: Vehicle control • Group 2: NA (3.94 mg/kg) • Group 3: Olz (10 mg/kg) • Group 4: Olz (10 mg/kg)+NA (3.94 mg/kg) • Group 5: Olz:NA 1:1 salt (13.94 mg/kg)
Dosing occurred 60 min prior to measuring blood glucose levels.
In cohort 2, mice were randomly assigned into the five groups listed below: • Group 1: Vehicle control • Group 2: Olz (5 mg/kg) • Group 3: Olz:NA 1:1 salt (6.97 mg/kg) • Group 4: Olz (10 mg/kg) • Group 5: Olz:NA 1:1 salt (13.94 mg/kg)
The night before the glucose tolerance test, the mice fasted. Blood glucose levels were measured in whole blood that was collected from the mouse's tail vein. Glucose levels were measured with a portable glucose meter (Contour® Plus, Bayer AG, Leverkusen, Germany), with the measurement occurring 60 min after the mice were dosed with the treatments indicated above Immediately following the glucose measurement, all mice were subjected to a glucose tolerance test, which involved an intraperitoneal challenge injection of 1 g/kg of glucose, followed by measuring blood glucose levels at 0, 30, 60 and 120 minutes.

[5] = tested on: mice; experiment: von Frey test, paw withdrawal threshold; type: in vivo, C57BL/6J male mice; conditions: for paw withdrawal threshold compared to vehicle control group / AUC values of von Frey pain threshold compared to vehicle control group / AUC of von Frey pain threshold relative to gabapentin group: mice, single oral dose; for paw withdrawal threshold compared to vehicle control group: gabapentin 20 mg/kg equivalent (salts 192, 106.02, 77.34 mg/kg), 15-180 min; for paw withdrawal threshold compared to vehicle control group / AUC values of von Frey pain threshold compared to vehicle control group: enriched TA 200 mg/kg; for AUC values of von Frey pain threshold compared to vehicle control group: gabapentin 20 mg/kg equivalent; for Pain threshold to time AUC after 120 min: von Frey test, acute oral, 20 mg/kg; for AUC of von Frey pain threshold relative to gabapentin group: same amount of gabapentin (20 mg/kg)
Protocol: The objective of this experiment was to assess the analgesic effects of gabapentin:enriched tannic acid salts in mice. The testing compounds were administrated to mice by oral gavage before von Frey test (a typical assay for pain sensation).
Mice used in this study were randomly assigned into six groups: • Group 1: Vehicle control • Group 2: Enriched TA (200 mg/kg) • Group 3: GBP (20 mg/kg) • Group 4: GBP:enriched TA 1:1 salt (192 mg/kg) • Group 5: GBP:enriched TA 2:1 salt (106.02 mg/kg) • Group 6: GBP:enriched TA 3:1 salt (77.34 mg/kg)
Each mouse in Groups 1-6 received a single, oral dose of 65% PEG400 in ddH2O, enriched tannic acid at 200 mg/kg, gabapentin at 20 mg/kg, gabapentin:enriched tannic acid 1:1 salt (192 mg/kg), gabapentin:enriched tannic acid 2:1 salt (106.02 mg/kg) and gabapentin:enriched tannic acid 3:1 salt (77.34 mg/kg). The amount of gabapentin administered to the mice in Groups 3 to 6 was the same.
Mice were habituated in individual transparent acrylic box on a wire-mesh floor for 30 min before testing. An electronic von Frey apparatus (Bioseb-EVF4S) was used to measure the paw withdrawal thresholds (g) of each mouse before drug administration (baseline) and at 15, 30, 60, 120 and 180 mins after drug administration.

[6] = Carr Index (USP 1174), flowability; type: physicochemical
[7] = GTT, dosage of quetiapine 20 mg/kg
Protocol: For the acute study, mice were randomly assigned into one of the five groups listed below. • Group 1: Vehicle control • Group 2: NA (3.77 mg/kg) • Group 3: Clz (10 mg/kg) • Group 4: Clz (10 mg/kg)+NA (3.77 mg/kg) • Group 5: Clz:NA 1:1 salt (13.77 mg/kg)
For the repeated dose study, two cohorts of mice were used. In cohort 1, mice were randomly assigned into one of the three groups listed below. • Group 1: Vehicle control • Group 2: Clz (10 mg/kg) • Group 3: Clz:NA 1:1 salt (13.77 mg/kg)
In cohort 2, the mice were randomly assigned into one of the three groups listed below. • Group 1: Vehicle control • Group 2: Clz (3 mg/kg) • Group 3: Clz:NA 1:1 salt (4.13 mg/kg)
To assess glucose tolerance, mice were fasted overnight on day 18 (for cohort 1) and on day 35 (for cohort 2), and their blood glucose response to i.p. administration of glucose (2 g/kg) was determined. Blood glucose levels were assessed in the whole blood collected from the tail vein, 60 min after drug administration Immediately following this glucose measurement, all mice were subjected to a glucose tolerance test by receiving an intraperitoneal challenge injection of 2 g/kg of glucose, and blood glucose levels were measured at 0, 30, 60 and 120 minutes.
Mice used in this study were randomly assigned into one of the six following groups: • Group 1: Vehicle control • Group 2: Clz (10 mg/kg) • Group 3: Clz (10 mg/kg)+enriched TA (22.5 mg/kg) • Group 4: Clz (10 mg/kg)+enriched TA (11.3 mg/kg) • Group 5: Clz:enriched TA 2:1 salt (32.5 mg/kg) • Group 6: Clz:enriched TA 4:1 salt (21.3 mg/kg)
One day before the glucose tolerance test, the mice fasted overnight and the blood glucose levels were measured in whole blood collected from the tail vein. Glucose levels were measured using a portable glucose meter (Contour® Plus, Bayer AG, Leverkusen, Germany) 60 min after they were acutely administered with the treatments indicated above Immediately following this glucose measurement, all mice were subjected to a glucose tolerance test by receiving an intraperitoneal challenge injection of 2 g/kg of glucose. Blood glucose levels were measured at 30, 60 and 120 minutes.
Two cohorts of mice were used in this study. […]

[8] = MK801 model, dosage of clozapine 1 mg/kg
[9] = MK801 model, dosage of clozapine 2 mg/kg
[10] = paliperidone 0.06 mg/kg (benzoic acid salt study)
[11] = paliperidone 0.06 mg/kg (nicotinic acid salt study)
[12] = oral paliperidone 0.06 mg/kg or benzoic acid salt 0.076 mg/kg
[13] = oral paliperidone 0.06 mg/kg or nicotinic acid 1:2 salt 0.094 mg/kg
[14] = oral quetiapine 10 mg/kg or nicotinic acid salt […]
[15] = risperidone 10 mg/kg as printed in Table 29
[16] = oral risperidone 0.06 mg/kg or nicotinic acid salt 0.078 mg/kg

## CN1CCN(C2=Nc3cc(Cl)ccc3Nc3ccccc32)CC1 [clozapine, reference compound]
[1]
  solubility: 180 µg/mL (≈ 551 µM)
[2]; MK801-treated mice, dosage of clozapine 1 mg/kg (benzoic acid salt study)
  Recovery rate (%): 65.1%
[2]; [8]
  Recovery rate (%): 57%
[2]; [9]
  Recovery rate (%): 79%
[2]; clozapine 1 mg/kg
  Open-field test, anti-hyperactivity effect (formula [formula] not readable): 18.77%
[3]; male, Sprague-Dawley, 60 mg/kg
  AUC: 1320 ng·h/mL
  AUC Increased (%): 100%
  Tmax: 1 h
  half-life: 336 ± 102 min

## CN1CCN(C2=Nc3cc(Cl)ccc3Nc3ccccc32)CC1.O=C(O)c1cccnc1 [clozapine:nicotinic acid 1:1 salt]
[2]; [8]
  Recovery rate (%): 86%
[2]; [9]
  Recovery rate (%): 100%
[3]
  T1/2: 3.2 ± 1.4 h
  Tmax: 0.8 h
[3]; 60 mg/kg
  AUC Increased (%): 161.8%
[4]
  reduction of clozapine-induced hyperglycemia: 46.8%

## NCC1(CC(=O)O)CCCCC1 [gabapentin, reference compound]
[5]
  paw withdrawal threshold compared to vehicle control group: no difference from control group at any time point examined
  AUC values of von Frey pain threshold compared to vehicle control group: little to no effect
  Pain threshold to time AUC after 120 min: 1.28

## Cc1cc2c(s1)Nc1ccccc1N=C2N1CCN(C)CC1 [olanzapine, reference compound]
[2]; MK801-treated mice, dosage of olanzapine 0.1 mg/kg
  Recovery rate (%): 36.8%
[2]; olanzapine 0.5 mg/kg
  Open-field test effect (formula [formula] not readable): 85.8%
  Open-field test, anti-hyperactivity effect (formula [formula] not readable): 30.53%

## Cc1nc2n(c(=O)c1CCN1CCC(c3noc4cc(F)ccc34)CC1)CCCC2O (stereo not drawn) [paliperidone, reference compound]
[1]
  solubility: 290 µg/mL (≈ 680 µM)
[2]; [10]
  Open-field test effect (formula [formula] not readable): 50.3%
[2]; [11]
  Open-field test effect (formula [formula] not readable): 50.3%
[2]; [12]
  locomotor activity in MK-801 treated mice: alleviates MK-801 induced hyperactivity
[2]; [13]
  locomotor activity in MK-801 treated mice: alleviates MK-801 induced hyperactivity
[6]
  Carr Index: 29%

## Cc1nc2n(c(=O)c1CCN1CCC(c3noc4cc(F)ccc34)CC1)CCCC2O.O=C(O)c1ccccc1 (stereo not drawn) [paliperidone:benzoic acid 1:1 salt, Paliperidone:Benzoic Acid 1:1 Salt]
[1]
  water solubility: 10.4 mg/mL
[2]; [10]
  Open-field test effect (formula [formula] not readable): 85.0%
[2]; [12]
  locomotor activity in MK-801 treated mice: significant decrease in locomotion activity, compared with paliperidone group
[6]
  Carr Index: 13%

## Cc1nc2n(c(=O)c1CCN1CCC(c3noc4cc(F)ccc34)CC1)CCCC2O.O=C(O)c1cccnc1.O=C(O)c1cccnc1 (stereo not drawn) [paliperidone:nicotinic acid 1:2 salt]
[1]
  water solubility: 137.3 mg/mL
[2]; [11]
  Open-field test effect (formula [formula] not readable): 89.7%
[2]; [13]
  locomotor activity in MK-801 treated mice: significant decreases in locomotion activity, compared with paliperidone group
[6]
  Carr Index: 29%

## OCCOCCN1CCN(C2=Nc3ccccc3Sc3ccccc32)CC1 [quetiapine, reference compound]
[2]; quetiapine 10 mg/kg
  Open-field test effect (formula [formula] not readable): 8.7%
[2]; [14]
  locomotor activity in MK-801 treated mice: alleviates MK-801 induced hyperactivity

## O=C(O)/C=C/C(=O)O.OCCOCCN1CCN(C2=Nc3ccccc3Sc3ccccc32)CC1 [quetiapine:fumaric acid 1:1 salt, reference compound]
[6]
  Carr Index: 33%

## O=C(O)c1cccnc1.OCCOCCN1CCN(C2=Nc3ccccc3Sc3ccccc32)CC1 [quetiapine:nicotinic acid 1:1 salt]
[1]
  water solubility: 262 mg/mL
[2]; quetiapine 10 mg/kg
  Open-field test effect (formula [formula] not readable): 53.1%
[2]; [14]
  locomotor activity in MK-801 treated mice: significant decrease in locomotion activity, compared with quetiapine group
[6]
  Carr Index: 20%
[7]
  Blood glucose level compared to vehicle after 120 min: 1.00

## Cc1nc2n(c(=O)c1CCN1CCC(c3noc4cc(F)ccc34)CC1)CCCC2 [risperidone, reference compound]
[1]
  solubility: < 5 µg/mL
[2]; [15]
  Open-field test effect (formula [formula] not readable): 48.7%
[2]; [16]
  locomotor activity in MK-801 treated mice: alleviates MK-801 induced hyperactivity

## Cc1nc2n(c(=O)c1CCN1CCC(c3noc4cc(F)ccc34)CC1)CCCC2.O=C(O)c1cccnc1 [risperidone:nicotinic acid 1:1 salt, resperidone:nicotinic acid 1:1 salt]
[1]
  water solubility: 2170.77 mg/mL
[2]; [15]
  Open-field test effect (formula [formula] not readable): 80.1%
[2]; [16]
  locomotor activity in MK-801 treated mice: higher potency to MK-801-induced hyperactivity

## gabapentin:enriched tannic acid 1:1 salt
[5]
  paw withdrawal threshold compared to vehicle control group: significantly higher at 60 and 120 min
  AUC values of von Frey pain threshold compared to vehicle control group: significantly higher
  AUC of von Frey pain threshold relative to gabapentin group: about twice as high as in gabapentin group

## gabapentin:enriched tannic acid 2:1 salt
[5]
  paw withdrawal threshold compared to vehicle control group: significantly higher at 30 min

## gabapentin:enriched tannic acid 3:1 salt
[5]
  paw withdrawal threshold compared to vehicle control group: significantly higher at 30, 60 and 120 min after administration
  AUC values of von Frey pain threshold compared to vehicle control group: significantly higher
  AUC of von Frey pain threshold relative to gabapentin group: about twice as high as in gabapentin group
  Pain threshold to time AUC after 120 min: 2.80

## olanzapine:enriched tannic acid 2:1 salt
[2]; olanzapine 0.5 mg/kg
  Open-field test, anti-hyperactivity effect (formula [formula] not readable): 112.82%

## olanzapine:pantothenic acid 5:1 salt
[2]; olanzapine 0.5 mg/kg
  Open-field test effect (formula [formula] not readable): 101.0%
[2]; oral olanzapine 0.5 mg/kg or 5:1 salt 0.547 mg/kg
  locomotor activity in MK-801 treated mice: higher potency to MK-801-induced hyperactivity
